From paper PMC11631053, “A receptor-based assay to study the sweet and bitter tastes of sweeteners and binary sweet blends: the SWEET project” (Chemical Senses, 2024)
Values joined by “and” are separate entries in the source; they are usually repeats but may differ in a detail not shown here. Identical values can stand only once.

What was measured:
[1] = target: T1, TAS2R31 (Homo sapiens, UniProt P59538); test: Calcium mobilization assay, HEK293T-Gα16gust44 cells expressing TAS2R31; conditions: maximal concentration tested: sucralose 100 mM, neotame 30 µM, Ace-K 300 mM, RebA 4 mM, RebM 4 mM, mogroside V 5 mM, erythritol 200 mM, D-allulose 500 mM, thaumatin 100 mM
T1 sequence (P59538 1-309): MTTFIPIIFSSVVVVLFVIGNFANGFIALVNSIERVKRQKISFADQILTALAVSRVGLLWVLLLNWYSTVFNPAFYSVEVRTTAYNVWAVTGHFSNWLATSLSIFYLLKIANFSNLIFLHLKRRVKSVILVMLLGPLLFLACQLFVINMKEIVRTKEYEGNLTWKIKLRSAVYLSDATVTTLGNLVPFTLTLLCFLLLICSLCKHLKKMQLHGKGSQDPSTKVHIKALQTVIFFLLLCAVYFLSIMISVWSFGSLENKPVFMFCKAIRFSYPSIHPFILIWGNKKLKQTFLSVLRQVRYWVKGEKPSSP
Method: (§1) Different concentration ranges were tested depending on the injected sweet compound. […] All of the concentration-receptor combinations were measured in triplicate, and each experiment was repeated at least 3 times. The Ca^2+ change was expressed as a fractional change in fluorescent light intensity: ΔF/F = (F − F0)/F0, where F was the fluorescent light intensity at each point, and F0 was the value of fluorescent light emitted prior to stimulus application. To calculate dose–response relationships, the changes in fluorescence upon stimulus application were averaged, mock-subtracted and baseline-corrected. The resulting obtained dose–response data were adjusted by using a 4-parameter logistic equation.

[2] = target: T2, TAS2R7 (Homo sapiens, UniProt Q9NYW3); test: Calcium mobilization assay, HEK293T-Gα16gust44 cells expressing TAS2R7; conditions: maximal concentration tested: sucralose 100 mM, neotame 30 µM, Ace-K 300 mM, RebA 4 mM, RebM 4 mM, mogroside V 5 mM, erythritol 200 mM, D-allulose 500 mM, thaumatin 100 mM
T2 sequence (Q9NYW3 1-318): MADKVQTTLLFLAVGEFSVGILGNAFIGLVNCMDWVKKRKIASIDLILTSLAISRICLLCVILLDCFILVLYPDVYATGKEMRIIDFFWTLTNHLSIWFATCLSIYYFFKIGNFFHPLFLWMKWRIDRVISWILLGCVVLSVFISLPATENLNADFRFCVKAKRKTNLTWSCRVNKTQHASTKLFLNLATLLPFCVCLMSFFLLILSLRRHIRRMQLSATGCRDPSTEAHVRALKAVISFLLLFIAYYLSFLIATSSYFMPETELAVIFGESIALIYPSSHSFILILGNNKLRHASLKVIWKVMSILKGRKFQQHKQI
Method: (§2) Different concentration ranges were tested depending on the injected sweet compound. […] All of the concentration-receptor combinations were measured in triplicate, and each experiment was repeated at least 3 times. The Ca^2+ change was expressed as a fractional change in fluorescent light intensity: ΔF/F = (F − F0)/F0, where F was the fluorescent light intensity at each point, and F0 was the value of fluorescent light emitted prior to stimulus application. To calculate dose–response relationships, the changes in fluorescence upon stimulus application were averaged, mock-subtracted and baseline-corrected. The resulting obtained dose–response data were adjusted by using a 4-parameter logistic equation. The half-maximal effective concentration (EC50) was calculated by using SigmaPlot software (Systat Software, San Jose, CA, USA) as described in supplemental Supplementary Figs. S1, S2, and S3.

[3] = target: T3, TAS2R41 (Homo sapiens, UniProt P59536); test: Calcium mobilization assay, HEK293T-Gα16gust44 cells expressing TAS2R41; conditions: maximal concentration tested: sucralose 100 mM, neotame 30 µM, Ace-K 300 mM, RebA 4 mM, RebM 4 mM, mogroside V 5 mM, erythritol 200 mM, D-allulose 500 mM, thaumatin 100 mM
T3 sequence (P59536 1-307): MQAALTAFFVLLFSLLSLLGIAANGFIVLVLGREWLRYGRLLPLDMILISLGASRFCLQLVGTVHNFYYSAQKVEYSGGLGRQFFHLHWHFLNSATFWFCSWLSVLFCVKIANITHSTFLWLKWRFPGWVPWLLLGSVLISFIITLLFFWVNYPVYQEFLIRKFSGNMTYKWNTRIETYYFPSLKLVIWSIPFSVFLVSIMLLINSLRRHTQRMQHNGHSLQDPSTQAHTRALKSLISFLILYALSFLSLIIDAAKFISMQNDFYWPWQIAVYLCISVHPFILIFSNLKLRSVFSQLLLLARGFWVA
Method: as §2

[4] = target: T4, TAS2R60 (Homo sapiens, UniProt P59551); test: Calcium mobilization assay, HEK293T-Gα16gust44 cells expressing TAS2R60; conditions: maximal concentration tested: sucralose 100 mM, neotame 30 µM, Ace-K 300 mM, RebA 4 mM, RebM 4 mM, mogroside V 5 mM, erythritol 200 mM, D-allulose 500 mM, thaumatin 100 mM
T4 sequence (P59551 1-318): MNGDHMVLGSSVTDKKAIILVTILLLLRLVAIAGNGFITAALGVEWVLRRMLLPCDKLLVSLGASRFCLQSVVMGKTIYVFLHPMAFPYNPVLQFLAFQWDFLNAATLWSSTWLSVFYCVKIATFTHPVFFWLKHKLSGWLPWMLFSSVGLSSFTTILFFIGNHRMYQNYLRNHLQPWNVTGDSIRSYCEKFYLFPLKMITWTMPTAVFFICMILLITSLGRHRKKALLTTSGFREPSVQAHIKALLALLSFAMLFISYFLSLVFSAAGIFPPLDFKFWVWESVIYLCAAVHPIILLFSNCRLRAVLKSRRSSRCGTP
Method: as §2

[5] = target: T5, TAS2R3 (Homo sapiens, UniProt Q9NYW6); test: Calcium mobilization assay, HEK293T-Gα16gust44 cells expressing TAS2R3; conditions: maximal concentration tested: sucralose 100 mM, neotame 30 µM, Ace-K 300 mM, RebA 4 mM, RebM 4 mM, mogroside V 5 mM, erythritol 200 mM, D-allulose 500 mM, thaumatin 100 mM
T5 sequence (Q9NYW6 1-316): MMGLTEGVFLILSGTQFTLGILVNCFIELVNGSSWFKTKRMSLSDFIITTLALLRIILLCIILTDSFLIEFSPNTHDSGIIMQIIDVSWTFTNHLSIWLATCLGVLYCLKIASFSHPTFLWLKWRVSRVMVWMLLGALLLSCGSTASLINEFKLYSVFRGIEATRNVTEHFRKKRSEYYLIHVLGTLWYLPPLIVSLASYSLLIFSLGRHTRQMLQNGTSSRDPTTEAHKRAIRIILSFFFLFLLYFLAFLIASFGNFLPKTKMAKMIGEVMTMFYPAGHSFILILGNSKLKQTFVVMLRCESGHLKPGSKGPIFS
Method: as §2

[6] = target: T6, TAS2R46 (Homo sapiens, UniProt P59540); test: Calcium mobilization assay, HEK293T-Gα16gust44 cells expressing TAS2R46; conditions: for Response of TAS2R46: maximal concentration tested: sucralose 100 mM, neotame 30 µM, Ace-K 300 mM, RebA 4 mM, RebM 4 mM, mogroside V 5 mM, erythritol 200 mM, D-allulose 500 mM, thaumatin 100 mM
T6 sequence (P59540 1-309): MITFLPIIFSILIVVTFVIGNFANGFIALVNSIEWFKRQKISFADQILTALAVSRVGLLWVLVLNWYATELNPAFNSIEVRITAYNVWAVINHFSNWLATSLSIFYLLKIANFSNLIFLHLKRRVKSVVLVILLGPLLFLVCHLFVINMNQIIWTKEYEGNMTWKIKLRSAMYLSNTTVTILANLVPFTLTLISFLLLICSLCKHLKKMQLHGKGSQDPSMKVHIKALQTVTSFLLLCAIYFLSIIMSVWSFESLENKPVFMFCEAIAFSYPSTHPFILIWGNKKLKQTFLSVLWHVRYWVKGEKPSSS
Method: as §1

[7] = target: T7, TAS2R20 (Homo sapiens, UniProt P59543); test: Calcium mobilization assay, HEK293T-Gα16gust44 cells expressing TAS2R20; conditions: maximal concentration tested: sucralose 100 mM, neotame 30 µM, Ace-K 300 mM, RebA 4 mM, RebM 4 mM, mogroside V 5 mM, erythritol 200 mM, D-allulose 500 mM, thaumatin 100 mM
T7 sequence (P59543 1-309): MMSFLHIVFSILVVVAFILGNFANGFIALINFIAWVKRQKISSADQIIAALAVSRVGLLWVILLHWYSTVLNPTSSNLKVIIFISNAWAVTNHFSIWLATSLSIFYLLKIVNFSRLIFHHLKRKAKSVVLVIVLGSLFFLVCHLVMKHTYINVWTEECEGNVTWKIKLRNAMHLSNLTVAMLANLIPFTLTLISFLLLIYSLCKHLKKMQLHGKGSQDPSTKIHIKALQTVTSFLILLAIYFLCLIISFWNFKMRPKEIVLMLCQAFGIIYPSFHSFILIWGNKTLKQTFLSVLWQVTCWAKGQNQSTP
Method: as §1

[8] = tested on: 25 human TAS2Rs; test: Screen of the 25 human TAS2Rs, calcium mobilization in HEK293T-Gα16gust44 cells; assay type: cell-based; conditions: for number of TAS2Rs activated: of the 25 human TAS2Rs; for activation of any TAS2Rs: at the maximal tested concentration (Table 4)
Method: The activation of the 25 human TAS2Rs by the 9 selected sweeteners (excluding sucrose) was examined by using HEK293T-Gα16gust44 cells. Cellular responses were measured after cell stimulation with various concentrations of the sweeteners.

Compound | Response of TAS2R31 [1] | Response of TAS2R7 [2] | Response of TAS2R41 [3] | Response of TAS2R60 [4] | Response of TAS2R3 [5] | Response of TAS2R46 [6] | Response of TAS2R20 [7] | number of TAS2Rs activated [8] | activation of any TAS2Rs [8] | EC50 ([6]; TAS2R46 EC50)
CC1=CC(=O)NS(=O)(=O)O1 [Ace-K, acesulfame-K] | #^b | − | − | − | − | − | − |  |  | 
O=C(CO)[C@H](O)[C@H](O)[C@H](O)CO [D-allulose] | − | − | − | − | − | − | − | 7 |  | 
OC[C@@H](O)[C@@H](O)CO [Erythritol, erythritol] | − | − | − | − | − | − | − |  | Neither neotame, RebM, erythritol, or thaumatin activated any TAS2Rs | 
C[C@H](CC[C@@H](O[C@@H]1O[C@H](CO[C@@H]2O[C@H](CO)[C@@H](O)[C@H](O)[C@H]2O)[C@@H](O)[C@H](O)[C@H]1O[C@@H]1O[C@H](CO)[C@@H](O)[C@H](O)[C@H]1O)C(C)(C)O)[C@H]1CC[C@@]2(C)[C@@H]3CC=C4[C@@H](CC[C@H](O[C@@H]5O[C@H](CO[C@@H]6O[C@H](CO)[C@@H](O)[C@H](O)[C@H]6O)[C@@H](O)[C@H](O)[C@H]5O)C4(C)C)[C@]3(C)[C@H](O)C[C@]12C [Mogroside V, mogroside V] | − | − | − | − | − | − | − | 2 |  | 
COC(=O)[C@H](Cc1ccccc1)NC(=O)[C@H](CC(=O)O)NCCC(C)(C)C [Neotame] | − | − | − | − | − | − | − |  | Neither neotame, RebM, erythritol, or thaumatin activated any TAS2Rs | 
C=C1C[C@@]23CC[C@H]4[C@@](C)(CCC[C@@]4(C)C(=O)O[C@@H]4O[C@H](CO)[C@@H](O)[C@H](O[C@@H]5O[C@H](CO)[C@@H](O)[C@H](O)[C@H]5O)[C@H]4O[C@@H]4O[C@H](CO)[C@@H](O)[C@H](O)[C@H]4O)[C@@H]2CC[C@]1(O[C@@H]1O[C@H](CO)[C@@H](O)[C@H](O[C@@H]2O[C@H](CO)[C@@H](O)[C@H](O)[C@H]2O)[C@H]1O[C@@H]1O[C@H](CO)[C@@H](O)[C@H](O)[C@H]1O)C3 [RebM, Rebaudioside M] | − | − | − | − | − | − | − |  | Neither neotame, RebM, erythritol, or thaumatin activated any TAS2Rs | 
OC[C@H]1O[C@H](O[C@]2(CCl)O[C@H](CCl)[C@@H](O)[C@@H]2O)[C@H](O)[C@@H](O)[C@H]1Cl [Sucralose, sucralose] | §^a | − | − | − | − | #^a | − | 3 |  | 3 mM and ≥ 3 mM
thaumatin | − | − | − | − | − | − | − |  | Neither neotame, RebM, erythritol, or thaumatin activated any TAS2Rs | 
